Emax and EC50 data for eleven molecules are collected here from US20250101041A1, “POSITIVE ALLOSTERIC MODULATORS OF THE MUSCARINIC ACETYLCHOLINE RECEPTOR M4” (Vanderbilt University, priority 2022, published 2025).

The target of the test is T1, human mAChR M4 (Homo sapiens, UniProt P08173).
T1 construct: expressed in transfected cells; host or cells: CHO-K1 (American Type Culture Collection), stably expressing hM4 and Gqi5
T1 sequence (P08173 1-479): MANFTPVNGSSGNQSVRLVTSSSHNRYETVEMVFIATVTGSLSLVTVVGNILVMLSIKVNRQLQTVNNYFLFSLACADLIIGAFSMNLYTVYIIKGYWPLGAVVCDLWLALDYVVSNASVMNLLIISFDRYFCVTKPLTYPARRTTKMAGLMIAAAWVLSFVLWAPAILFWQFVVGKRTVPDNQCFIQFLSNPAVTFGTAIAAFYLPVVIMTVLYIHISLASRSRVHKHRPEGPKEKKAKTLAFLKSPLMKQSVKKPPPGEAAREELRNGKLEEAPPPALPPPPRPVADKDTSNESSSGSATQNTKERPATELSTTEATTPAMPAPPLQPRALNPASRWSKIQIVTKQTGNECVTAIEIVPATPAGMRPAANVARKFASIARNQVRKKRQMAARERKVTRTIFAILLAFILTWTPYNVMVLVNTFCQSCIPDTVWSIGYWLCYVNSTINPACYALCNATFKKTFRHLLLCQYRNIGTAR
As to the kind of experiment: mAChR M4 cell-based functional assay: calcium mobilization (Fluo-4, FDSS), potentiation of EC20 acetylcholine response in hM4-Gqi5 CHO-K1 cells. To be noted: human M4; for Emax at 30 µM: CHO-K1, % ACh maximum at 30 μM; for EC50: potentiation of EC20 acetylcholine response, calcium mobilization. In a few lines: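 Readout is the fluorescence-ratio rise at 1 Hz on FDSS, with PAM activity taken as concentration-dependent enhancement of the EC20 acetylcholine response, fitted four-parameter for EC50/Emax. hM4-Gqi5 CHO-K1 cells carried Fluo-4 AM dye; test compounds (11 points, 1:3) preceded EC20 acetylcholine additions at 144 s and 230 s.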
Background: A change in cytosolic calcium serves as a functional read-out for many receptors and channels.

A word on the Emax: it is the size of the effect at its maximum, as opposed to the concentration needed. As a reminder, the EC50 is the concentration giving half of the maximal effect. Turning to `Cc1cc2nccc(=O)n2nc1N1CCc2ncc(-c3cnn(C)c3C(F)F)cc2C1` [Compound 1-413, 7-(3-(5-(difluoromethyl)-1-methyl-1H-pyrazol-4-yl)-7,8-dihydro-1,6-naphthyridin-6(5H)-yl)-8-methyl-4H-pyrimido[1,2-b]pyridazin-4-one], the Emax at 30 µM came out at 89% and the EC50 came out at 0.208 µM.
`Cc1cc2nccc(=O)n2nc1N1CCc2ncc(-c3cnn(C(F)F)c3C)cc2C1` [Compound 1-414, 7-(3-(1-(difluoromethyl)-5-methyl-1H-pyrazol-4-yl)-7,8-dihydro-1,6-naphthyridin-6(5H)-yl)-8-methyl-4H-pyrimido[1,2-b]pyridazin-4-one]: the Emax at 30 µM was 81% and the EC50 worked out at 0.435 µM.
In the same order, the values of `Cc1cc2nccc(=O)n2nc1N1CCc2ncc(-c3ccsc3C=O)cc2C1` [Compound 1-415, 3-(6-(8-methyl-4-oxo-4H-pyrimido[1,2-b]pyridazin-7-yl)-5,6,7,8-tetrahydro-1,6-naphthyridin-3-yl)thiophene-2-carbaldehyde] are 86% and 0.81 µM.
Regarding `Cc1cc2nccc(=O)n2nc1N1CCc2ncc(-c3c(C)noc3C)cc2C1` [Compound 1-416, 7-(3-(3,5-dimethylisoxazol-4-yl)-7,8-dihydro-1,6-naphthyridin-6(5H)-yl)-8-methyl-4H-pyrimido[1,2-b]pyridazin-4-one], the Emax at 30 µM was found to be 89% and the EC50 was found to be 0.797 µM.
Consider `Cc1cc2nccc(=O)n2nc1N1CCc2ncc(-c3cn(C(F)F)nc3C)cc2C1` [Compound 1-417, 7-(3-(1-(difluoromethyl)-3-methyl-1H-pyrazol-4-yl)-7,8-dihydro-1,6-naphthyridin-6(5H)-yl)-8-methyl-4H-pyrimido[1,2-b]pyridazin-4-one], for which the Emax at 30 µM is 82% and the 50% effective concentration (EC50) stood at 0.588 µM.
In the case of `Cc1cc2nccc(=O)n2nc1N1CCc2ncc(-c3cccnc3C(C)(C)O)cc2C1` [Compound 1-418, 7-(3-(2-(2-hydroxypropan-2-yl)pyridin-3-yl)-7,8-dihydro-1,6-naphthyridin-6(5H)-yl)-8-methyl-4H-pyrimido[1,2-b]pyridazin-4-one], the maximum response (Emax) at 30 µM worked out at 48%.
As to `Cc1cc2nccc(=O)n2nc1N1CCc2ncc(-c3cncc(C(C)(C)O)c3)cc2C1` [Compound 1-419, 7-(3-(5-(2-hydroxypropan-2-yl)pyridin-3-yl)-7,8-dihydro-1,6-naphthyridin-6(5H)-yl)-8-methyl-4H-pyrimido[1,2-b]pyridazin-4-one], the Emax at 30 µM stood at 82% and the EC50 was 1.12 µM.
For the molecule `Cc1ncc(-c2cnc3c(c2)CN(c2nn4c(=O)ccnc4cc2C)CC3)c(C)n1` [Compound 1-420, 7-(3-(2,4-dimethylpyrimidin-5-yl)-7,8-dihydro-1,6-naphthyridin-6(5H)-yl)-8-methyl-4H-pyrimido[1,6-b]pyridazin-4-one], the Emax at 30 µM turned out to be 93% and the EC50 stood at 1.72 µM.
As to `Cc1cc2nccc(=O)n2nc1N1CCc2ncc(-c3ccc(C#N)nc3C)cc2C1` [Compound 1-421, 6-methyl-5-(6-(8-methyl-4-oxo-4H-pyrimido[1,2-b]pyridazin-7-yl)-5,6,7,8-tetrahydro-1,6-naphthyridin-3-yl)picolinonitrile], the maximal response (Emax) at 30 µM was found to be 97% and the EC50 amounted to 2.42 µM.
`Cc1cc2nccc(=O)n2nc1N1CCc2ncc(-c3cccnc3C(C)C)cc2C1` [Compound 1-422, 7-(3-(2-isopropylpyridin-3-yl)-7,8-dihydro-1,6-naphthyridin-6(5H)-yl)-8-methyl-4H-pyrimido [1,2-b]pyridazin-4-one]: the Emax at 30 µM was 64% and the concentration giving a half-maximal response (EC50) is 1.72 µM.
Regarding `Cc1cc2nccc(=O)n2nc1N1CCc2ncc(-c3cc(C#N)n(C)c3C)cc2C1` [Compound 1-423, 1,5-dimethyl-4-(6-(8-methyl-4-oxo-4H-pyrimido[1,2-b]pyridazin-7-yl)-5,6,7,8-tetrahydro-1,6-naphthyridin-3-yl)-1H-pyrrole-2-carbonitrile], the Emax at 30 µM turned out to be 79% and the EC50 came out at 1.19 µM.
